We go through twelve compounds from patent publication US20100216777A1, “AMINOPYRAZINE ANALOGS FOR TREATING GLAUCOMA AND OTHER RHO KINASE-MEDIATED DISEASES AND CONDITIONS” (ALCON, INC., priority 2004, published 2010).

Structures can show the parent of a compound that is named as a salt.

The assay concerns the target T1, Human Recombinant ROCK-II Enzyme (ROKα/ROCK-II, aa 11-552) (Homo sapiens, UniProt O75116).
T1 construct: (ROKα/ROCK-II, (aa 11-552), human active); purchased Upstate Biotechnology Co., Lake Placid, N.Y. 14-451
Nature of the assay: ROCK-II inhibition, fluorescence polarization assay (IMAP ROCK II kit). The assay is classed as biochemical. The settings on record: substrate 200 nM, ATP 10 μM, 60 min at 23° C., read-out: Enzyme Inhibition Constants (IC50) against Human Recombinant ROCK-II Enzyme. As to the method:
The ability of certain compounds of Formula (I) to inhibit rho kinase was evaluated by means of in vitro assays. Human recombinant Rho kinase (ROKα/ROCK-II, (aa 11-552), human active, catalog #14-451, Upstate Biotechnology Co., Lake Placid, N.Y.), MgCl2/ATP cocktail, and enzyme substrate (Upstate) are used.
The fluorescence polarization assays are performed using a Biomek 2000 Robotic Workstation (Beckman Instruments, Palo Alto, Calif.) in a 96-well plate format. The assays are performed utilizing the IMAP ROCK II kit (Molecular Devices, Sunnyvale, Calif.) as follows. Substrate and ATP concentrations used are 200 nM and 10 μM, respectively, while the enzyme concentration is 3.96×10^−3 units per well. The substrate, enzyme, and ATP dilutions are made with the reaction buffer provided by the vendor. Test compounds are diluted in 10:10 DMSO-ethanol (vol/vol). For the actual assays, the various components are added into black, clear bottom, 96-well plates (Costar, Corning, N.Y.) in a final volume of 20 μl per well. After the enzyme reaction (60 min at 23° C.), 60 μl of the binding solution (IMAP kit, provided by vendor) is added per well and incubated for an additional 30 minutes in the dark at 23° C. Fluorescence polarization of the reaction mixtures is then measured on the Analyst™ HT instrument (Molecular Devices, Sunnyvale, Calif.).
The data generated are then analyzed using a non-linear, iterative, sigmoidal-fit computer program purchased from IDBS (Emeryville, Calif.) and as previously described (Sharif et al., J. Pharmacol. Exp. Ther. 286:1094-1102, 1998; Sharif et al., J. Pharmacol. Expt. Ther. 293:321-328, 2000; Sharif et al., J. Ocular Pharmacol. Ther. 18:141-162, 2002a; Sharif et al., J. Pharmac. Pharmacol. 54:539-547, 2002b) to generate the inhibition constants for the test compounds.
(In general: Fluorescence polarisation rises when a labelled molecule tumbles more slowly, as on binding a larger partner.)

T1 sequence (O75116 11-552): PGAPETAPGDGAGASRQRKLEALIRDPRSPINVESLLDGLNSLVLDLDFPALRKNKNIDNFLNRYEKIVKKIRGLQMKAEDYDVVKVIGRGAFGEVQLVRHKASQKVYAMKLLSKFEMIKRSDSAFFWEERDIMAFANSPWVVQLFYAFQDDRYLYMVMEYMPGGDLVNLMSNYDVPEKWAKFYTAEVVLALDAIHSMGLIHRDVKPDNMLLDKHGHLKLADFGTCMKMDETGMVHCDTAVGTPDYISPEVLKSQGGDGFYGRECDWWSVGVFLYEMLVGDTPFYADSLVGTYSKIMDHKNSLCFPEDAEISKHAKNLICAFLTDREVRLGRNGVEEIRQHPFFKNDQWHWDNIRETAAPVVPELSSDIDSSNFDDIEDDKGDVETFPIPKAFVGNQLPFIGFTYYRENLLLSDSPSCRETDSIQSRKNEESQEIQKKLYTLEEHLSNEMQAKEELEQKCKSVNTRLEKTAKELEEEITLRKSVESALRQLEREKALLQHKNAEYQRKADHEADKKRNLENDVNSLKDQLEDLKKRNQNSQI

Turning to `Cc1cnccc1-c1cnc(N)c(N2CCCN(C)CC2)n1` [Example 2, 3-(4-Methyl-1,4-diazepan-1-yl)-5-(3-methylpyridin-4-yl)pyrazin-2-amine hydrochloride], the IC50 (usually the concentration needed to halve the response being measured) was 58 nM. In the case of `Nc1ncc(-c2ccncc2)nc1N1CCCCC1` [Example 10, 3-(Piperidin-1-yl)-5-(pyridin-4-yl)pyrazin-2-amine] it was 59 nM. As for `Nc1ncc(-c2ccncc2)nc1NC1CCCNC1` (stereo not drawn) [Example 17, N,N-(Piperidin-3-yl)-6-(pyridin-4-yl)pyrazine-2,3-diamine], the IC50 is 0.21 nM. In the case of `CN1CCCN(c2nc(-c3ccncc3)cnc2N2CCCCC2)CC1` [Example 48, 1-Methyl-4-(3-(piperidin-1-yl)-6-(pyridin-4-yl)pyrazin-2-yl)-1,4-diazepane hydrochloride], the IC50 is 0.56 nM. Take `CNc1ncc(-c2ccncc2)nc1NC1CCCNC1` (stereo not drawn) [Example 26, N^2-Methyl-N^3-(piperidin-3-yl)-5-(pyridin-4-yl)pyrazine-2,3-diamine hydrochloride]: the IC50 was 2.1 nM. In the case of `CN1CCCN(c2nc(-c3ccncc3)cnc2N2CCCC2)CC1` [Example 38, 1-Methyl-4-(6-(pyridin-4-yl)-3-(pyrrolidin-1-yl)pyrazin-2-yl)-1,4-diazepane hydrochloride] it was 0.33 nM; in that of `CN1CCCN(c2nc(-c3cccc4[nH]ncc34)cnc2N)CC1` [Example 5, 5-(1H-indazol-4-yl)-3-(4-methyl-1,4-diazepan-1-yl)pyrazin-2-amine dihydrochloride], 25 nM; in that of `CN1CCCC(Oc2nc(-c3ccncc3)cnc2N)C1` (stereo not drawn) [Example 21, 3-(1-Methylpiperidin-3-yloxy)-5-(pyridin-4-yl)pyrazin-2-amine], 4.2 nM. On to `COCCN(C)c1ncc(-c2ccncc2)nc1N1CCCN(C)CC1` [Example 29, N-(2-Methoxyethyl)-N-methyl-3-(4-methyl-1,4-diazepan-1-yl)-5-(pyridin-4-yl)pyrazin-2-amine hydrochloride], for which the IC50 stood at 45 nM. As for `CN(C)C1CCN(c2nc(-c3ccncc3)cnc2N)CC1` [Example 13, 3-(4-(Dimethylamino)piperidin-1-yl)-5-(pyridin-4-yl)pyrazin-2-amine], the half-inhibitory concentration (IC50) amounted to 6.4 nM. Turning to `Nc1ncc(-c2ccncc2)nc1OC1CCNCC1` [Example 22, 3-(Piperidin-4-yloxy)-5-(pyridin-4-yl)pyrazin-2-amine], the IC50 was 1.1 nM.

With `Nc1ncc(-c2ccncc2)nc1N1CCC(CO)CC1` [Example 11, (1-(3-Amino-6-(pyridin-4-yl)pyrazin-2-yl)piperidin-4-yl)methanol], the IC50 worked out at 17 nM.
